“Also recorded” adds a separate entry of the source.
Columns and labels:
[1] = Toxicity test of repeated oral administration for 9 days in rats; settings: rat, in vivo, read-out: NOAEL (No Observed Adverse Effect Level) dose
[2] = tested on: angiogenesis; test: Angiogenesis in rats; type: in vivo
[3] = tested on: wound healing model of SD rats; test: Skin wound healing model in SD rats (full-thickness circular skin wound, 2 cm diameter); type: in vivo; settings: for wound area compared with the model group: once a day, WS635 oral 52.8 mg/kg, rb-bFGF external 262.5 IU/cm2, P<0.05, P<0.01; for wound healing rate over the administration cycle: once a day for 7 days, time course
Description: Eighteen 6-week-old male SD rats were randomly divided into 3 groups: model group, test article group and positive control group, with 6 rats in each group. Skin wound surgery was performed after anesthesia, and oral administration was started 2 h after skin wound formation. All rats were raised in a single cage. […]. The surgical details were as follows: All animals were anesthetized with 10% chloral hydrate solution (3 mL/kg) by intraperitoneal injection, their backs were depatured with pet shaving knives, and a circular mark with a diameter of 2 cm was made. After the skin was disinfected with alcohol, the full layer of skin was removed with surgical scissors along the marking line, and the wound surface was pressed to stop bleeding. The model group was orally given 10% DMSO corn oil, the test group was orally given WS635 (corn oil dissolved in 10% DMSO) at 52.8 mg/kg, and the positive control group was given 262.5 IU/cm2 (62.5 μL/cm^2) recombinant bovine basic fibroblast growth factor (rb-bFGF) external solution, once a day for 7 days. Digital photos were taken of the wound of each rat under the same conditions. The wound was recorded with plastic transparent paper, and the wound area was scanned by image J software after the wound was recorded with plastic transparent paper. Wound healing rate was calculated according to wound area (%)=(area after administration−area before administration)/area before administration 100%.

| Compound | NOAEL at 9 days [1] [mg/kg/day] | angiogenesis [2] | wound area compared with the model group ([3]; Day 3) | wound area compared with the model group ([3]; Day 7) | wound healing effect of WS635 compared with rb-bFGF ([3]; WS635 oral 52.8 mg/kg vs rb-bFGF 262.5 IU/cm2, P>0.05, 52.8 mg/kg) | wound healing rate over the administration cycle [3] | wound healing (overall conclusion) ([3]; oral administration, SD rats) |
| --- | --- | --- | --- | --- | --- | --- | --- |
| C/C=C/C[C@@H](C)[C@@H](O)[C@H]1C(=O)N[C@@H](CC)C(=O)N(C)[C@H](SCCN(C)C)C(=O)N(C)[C@@H](CC(C)(C)O)C(=O)N[C@@H](C(C)C)C(=O)N(C)[C@@H](CC(C)C)C(=O)N[C@@H](C)C(=O)N[C@H](C)C(=O)N(C)[C@@H](CC(C)C)C(=O)N(C)[C@@H](CC(C)C)C(=O)N(C)[C@@H](C(C)C)C(=O)N1C [WS635, (3S,6S,9S,12R,15S,18S,21S,24S,27R,30S,33S)-27-((2-(dimethylamino)ethyl)thio)-30-ethyl-3 3-((1R,2R,E)-1-hydroxy-2-methylhex-4-en-1-yl)-24-(2-hydroxy-2-methylpropyl)-6,9,18-triisobutyl-3,21-diisopropyl-1,4,7,10,12,15,19,25,28-nonamethyl-1,4,7,10,13,16,19,22,25,28,31-undecaazacyclotritriacontan-2,5,8,11,14,17,20,23,26,29,32-undecaone] | 80 | significantly promote angiogenesis | decreased significantly | decreased significantly | equivalent to rb-bFGF; also recorded: no significant difference | enhances wound healing rate in a time-dependent manner; also recorded: increased with the extension of administration time | significantly promote wound healing |
| rb-bFGF: recombinant bovine basic fibroblast growth factor (rb-bFGF) external solution, positive control |  |  | decreased significantly | decreased significantly |  | increased with the extension of administration time |  |
